Measurements reported in patent US5858684A, “Method of screening calcium receptor-active molecules” (priority 1995, dated 1999).
“Also recorded” adds a separate entry of the source. Read-outs that look alike come from different tables or passages of the source. One block for each compound: values may come before it.

Columns and labels:
net positive charge = format: physicochemical
[1] = tested on: parathyroid cell calcium receptor; format: cell-based; settings: for mobilization of intracellular Ca2+: 500 μM; for response of bovine parathyroid cells or Xenopus oocytes expressing calcium receptors to mGluR agonists: bovine parathyroid cells or calcium receptor-expressing Xenopus oocytes
[2] = molecular target: T1, bovine parathyroid cell calcium receptor (BoPCaR 1) (Bos taurus, UniProt P35384); assay: Cl- current in Xenopus oocytes expressing BoPCaR 1; format: cell-based
T1 construct: Xenopus oocytes were injected with BoPCaR 1, the 5.3 Kb cDNA encoding a bovine parathyroid cell calcium receptor; expressed in transfected cells; host or cells: Xenopus laevis oocytes injected with cRNA/cDNA of BoPCaR 1
T1 sequence (P35384 20-1085): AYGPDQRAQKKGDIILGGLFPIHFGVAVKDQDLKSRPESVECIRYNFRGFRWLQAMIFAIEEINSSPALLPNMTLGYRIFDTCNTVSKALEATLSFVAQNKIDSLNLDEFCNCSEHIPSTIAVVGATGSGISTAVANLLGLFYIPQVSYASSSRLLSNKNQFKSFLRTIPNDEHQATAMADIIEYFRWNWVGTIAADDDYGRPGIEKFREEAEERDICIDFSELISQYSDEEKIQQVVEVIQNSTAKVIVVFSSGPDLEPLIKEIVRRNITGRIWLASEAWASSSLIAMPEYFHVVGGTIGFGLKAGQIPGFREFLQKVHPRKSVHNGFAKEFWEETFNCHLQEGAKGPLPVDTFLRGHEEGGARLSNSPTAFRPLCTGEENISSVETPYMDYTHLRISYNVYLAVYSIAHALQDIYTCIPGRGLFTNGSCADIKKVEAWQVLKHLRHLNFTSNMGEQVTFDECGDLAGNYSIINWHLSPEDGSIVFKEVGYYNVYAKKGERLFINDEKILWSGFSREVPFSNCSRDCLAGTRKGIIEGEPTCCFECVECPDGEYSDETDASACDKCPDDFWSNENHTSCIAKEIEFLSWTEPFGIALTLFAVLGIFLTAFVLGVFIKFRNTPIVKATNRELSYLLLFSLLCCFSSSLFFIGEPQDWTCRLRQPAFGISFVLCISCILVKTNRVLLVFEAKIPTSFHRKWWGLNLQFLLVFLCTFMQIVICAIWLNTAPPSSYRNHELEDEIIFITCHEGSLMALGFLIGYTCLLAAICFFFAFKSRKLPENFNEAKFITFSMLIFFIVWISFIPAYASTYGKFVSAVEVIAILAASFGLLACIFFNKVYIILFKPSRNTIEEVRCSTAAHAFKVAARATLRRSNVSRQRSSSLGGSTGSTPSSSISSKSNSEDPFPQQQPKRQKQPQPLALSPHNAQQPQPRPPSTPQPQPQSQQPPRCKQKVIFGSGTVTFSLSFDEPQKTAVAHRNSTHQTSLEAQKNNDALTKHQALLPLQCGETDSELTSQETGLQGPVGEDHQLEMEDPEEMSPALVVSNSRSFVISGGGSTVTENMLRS
Experimental: Following incubation, an oocyte was placed into a 100-μl plastic chamber and superfused with MBS at a flow rate of 0.5 ml/min using a peristaltic pump. Test molecules or inorganic polycations were added by rapidly moving the tubing into different buffers. Recording and current-passing electrodes were constructed from thin-wall capillary tubing pulled to a resistance of 1-3 Mohms and filled with 3M KCl. […] Currents were recorded directly onto a strip chart recorder.
The techniques used to clone the parathyroid calcium receptor are briefly described in this example; a more complete description of the techniques is provided in preceding sections, which describe techniques which may be used to clone additional forms of the Ca^2+ -receptor from other cell types. Poly(A^+)-enriched mRNA was initially prepared from bovine parathyroid glands by extracting with guanidinium thiocyanate, centrifugation through CsCl and oligo(dT) cellulose chromatography. […] No such currents were elicited in control eggs injected with water.
These responses are mediated by the following series of biochemical events:
Xenopus oocytes were injected with BoPCaR 1, the 5.3 Kb cDNA encoding a bovine parathyroid cell calcium receptor as described in Example 25. After two to three days, Cl^- currents were examined in the oocytes using a two-electrode voltage clamp.
Xenopus oocytes were injected with BoPCaR 1 as described in Example 25. After two to three days, Cl^- currents were examined in the oocytes using two electrode voltage clamp.

[3] = tested on: increases in [Ca2+]i elicited by extracellular Ca2+ in bovine parathyroid cells; assay: block of extracellular Ca2+-induced [Ca2+]i increase / Ca2+ influx in bovine parathyroid cells; format: cell-based

Compound: NCCCN(CCCN)CCCNCCCCNCCCN(CCCN)CCCN [NPS 382, N^1,N^1,N^5,N^14, N^14-tetrakis-(3-aminopropyl)spermine]
Net (+) Charge (Table 1) (net positive charge): +8

Compound: CC(NCCCc1ccccc1)c1ccccc1 (stereo not drawn) [compound 1D]
relative potency ([1]; vs R-fendiline): nearly as potent as the parent molecule

Compound: N=C(N)NCCC[C@H](N)C(=O)NCCCNCCCNCCCCCNC(=O)[C@H](CC(N)=O)NC(=O)Cc1c[nH]c2cccc(O)c12 [Argiotoxin-659]
concentrations evoking transient increases in [Ca2+]i ([1]; bovine parathyroid cells): 100 to 300 µM
EC50 ([1]; read-out: EC50 (Table 1), parathyroid cells, screened as in Example 1): 300 µM
EC50 ([1]; read-out: EC50 for mobilization of intracellular Ca2+, bovine parathyroid cells): 300 µM
Net (+) Charge (Table 1) (net positive charge): +4
net positive charge (net positive charge): +4

Compound: N=C(N)NCCC[C@H](N)C(=O)NCCCNCCCNCCCCCNC(=O)[C@H](CC(N)=O)NC(=O)Cc1ccc(O)cc1O [Argiotoxin-636]
increase in [Ca2+]i (words) ([1]; 400 μM): did not elicit increases
potentiation of cytosolic Ca2+ response to extracellular Ca2+ ([1]; 400 μM): did potentiate cytosolic
increase in [Ca2+]i (words) ([1]; tested at concentrations similar to 100 to 300 μM): had no effect
net positive charge (net positive charge): +4

Compound: COc1cccc([C@H](C)NCCCc2ccccc2Cl)c1 [NPS S-568]
concentration eliciting responses ([2]; BoPCaR 1-injected oocytes): 100 µM

Net (+) Charge (Table 1) (net positive charge): +5
Compound: NCCNCCNCCNCCN [Tetraethylenepentamine (TEPA), Tetraethylenepentamine]

Compound: [H]/N=C(/N)N[C@H]1[C@H](O)[C@@H](O)[C@H](O[C@@H]2O[C@@H](C)[C@](O)(C=O)[C@H]2O[C@@H]2O[C@@H](CO)[C@H](O)[C@@H](O)[C@@H]2NC)[C@@H](N/C(N)=N\[H])[C@@H]1O [Streptomycin]
EC50 ([1]; parathyroid cells, screened as in Example 1, read-out: EC50 (Table 1)): 600 µM
Net (+) Charge (Table 1) (net positive charge): +3
net positive charge (net positive charge; pH 7.3): +3

effect on activated chloride currents [2]: blocks the currents
Compound: O=C(O)c1c2ccccc2cc2ccccc12 [9AC]

Compound: O=C(O)CN(CCOCCOCCN(CC(=O)O)CC(=O)O)CC(=O)O [EGTA]
effect on inward currents to Gd3+ ([2]; EGTA 100 μM, Gd3+ 600 μM): prevents oocytes expressing the calcium receptor from responding

Compound: CC1=C(C(=O)OC(C)C)C(c2cccc3nonc23)C([N+](=O)[O-])=C(C)N1 (single isomer, unassigned; (+)) [(+) 202-791]
effect on basal [Ca2+]i or increases evoked by extracellular Ca2+ ([1]; 1 μM): None

net positive charge (net positive charge): +2
Compound: NCCCCN [Putrescine]

net positive charge (net positive charge): +2
Compound: NCCCCCN [Cadaverine, cadaverine]

Compound: COc1cccc(C(C)NCCC(c2ccccc2)c2ccccc2)c1 (stereo not drawn) [meta-Methoxyfendiline]
relative potency ([1]; vs NPS 467): as potent as NPS 467

Compound: CC1=C(C(=O)OC(C)C)C(c2cccc3nonc23)C([N+](=O)[O-])=C(C)N1 (single isomer, unassigned; (-)) [(-) 202-791]
effect on basal [Ca2+]i or increases evoked by extracellular Ca2+ ([1]; 1 μM): None

Compound: COc1ccc(CCN(C)CCCC(C#N)(c2ccc(OC)c(OC)c2)C(C)C)cc1OC (stereo not drawn) [verapamil]
block of influx of extracellular Ca2+ ([3]; 100 μM): blocked the influx of extracellular

Net (+) Charge (Table 1) (net positive charge): +8
Compound: NCCCN1CCCN(CCCN)CCN(CCCN)CCCN(CCCN)CC1 [NPS 383]

Compound: CCCC(=O)N[C@@H](Cc1ccc(O)cc1)C(=O)NCCCCNCCCNCCCN [Philanthotoxin-433]
mobilization of intracellular Ca2+ [1]: without effect
net positive charge (net positive charge): +3

IC50 ([3]; Bos taurus, fura-2 loaded bovine parathyroid cells, read-out: IC50 for blocking increase in [Ca2+]i elicited by extracellular Ca2+): ~200 µM
Compound: NCCCCCCCCCCCCNC(=O)Cc1ccc(O)cc1O [NPS 021]
change in [Ca2+]i by compound alone ([1]; 0.5 mM Ca2+): caused no change; also recorded: does not by itself cause any change
effect on increase in [Ca2+]i elicited by extracellular Ca2+ ([3]; 200 μM, [Ca2+] 0.5 to 2 mM): inhibited the increase
increase in [Ca2+]i evoked by extracellular Ca2+ ([3]; around 500 μM): abolished

net positive charge (net positive charge; pH 7.3): +1
Compound: CCC[C@@H]1C[C@@H](C(=O)N[C@@H]([C@H]2O[C@H](SC)[C@H](O)[C@@H](O)[C@H]2O)[C@@H](C)O)N(C)C1 [Lincomycin]
mobilization of intracellular Ca2+ [1]: without effect

Compound: COc1ccc(CCN(C)CCCC(C#N)(c2cc(OC)c(OC)c(OC)c2)C(C)C)cc1OC [D-600]
potentiation of mobilization of intracellular Ca2+ elicited by extracellular divalent cations ([1]; 100 μM): potentiated the mobilization of intracellular
change in [Ca2+]i ([1]; 100 μM, 0.5 mM extracellular Ca2+): evoked no change
increase in [Ca2+]i at intermediate extracellular Ca2+ ([1]; 100 μM, 1-[…] extracellular Ca2+): small, but robust increase
block of influx of extracellular Ca2+ ([3]; 100 μM): blocked the influx of extracellular

Compound: Gentamicin
Net (+) Charge (Table 1) (net positive charge): +5
net positive charge (net positive charge; pH 7.3): +5

Compound: NC[C@H]1O[C@H](O[C@H]2[C@H](O)[C@@H](O[C@H]3O[C@H](CO)[C@@H](O)[C@H](N)[C@H]3O)[C@H](N)C[C@@H]2N)[C@H](O)[C@@H](O)[C@@H]1O [Kanamycin]
mobilization of intracellular Ca2+ [1]: without effect
net positive charge (net positive charge; pH 7.3): ~+4.5

Compound: COC(=O)C1=C(C)NC(C)=C(C(=O)OC)C1c1ccccc1[N+](=O)[O-] [nifedipine]
effect on basal [Ca2+]i or increases evoked by extracellular Ca2+ [1]: None

Compound: N[C@@]1(C(=O)O)CC[C@@H](C(=O)O)C1 (relative stereo) [trans-ACPD]
response of bovine parathyroid cells or Xenopus oocytes expressing calcium receptors to mGluR agonists [1]: did not respond

Compound: COc1ccc(CC(=O)NCCCCCCCCCCCCN)cc1OC [NPS 384]
increase in [Ca2+]i (words) ([1]; 300 μM): did not evoke an increase
block of influx of extracellular Ca2+ ([3]; 300 μM): blocked influx of extracellular
effect of pretreatment on increases in [Ca2+]i elicited by extracellular Ca2+ ([3]; 100 to 1000 μM): depresses steady-state, but not transient increases
fall in [Ca2+]i ([3]; 100 to 1000 μM, buffer containing 2 mM CaCl2): prompt fall

Compound: CNc1ccc2oc(C[C@H]3O[C@@]4(CC[C@H]3C)O[C@H]([C@H](C)C(=O)c3ccc[nH]3)[C@H](C)C[C@H]4C)nc2c1C(=O)O [A23187]
effect on activated chloride currents [2]: activated

Compound: NCCNCCNCCN [Triethylenetramine (TETA), triethylenetetramine]
Net (+) Charge (Table 1) (net positive charge): +4

EC50 ([1]; bovine parathyroid cells, fura-2, read-out: EC50 PARATHYROID (Table 6)): 9 µM
Compound: C[C@@H](NCCC(c1ccccc1)c1ccccc1)c1ccccc1 [R-Fendiline]

Compound: COC(=O)C1=C(C)NC(C)=C([N+](=O)[O-])C1c1ccccc1C(F)(F)F (stereo not drawn) [BAY K 8644]
effect on basal [Ca2+]i or increases evoked by extracellular Ca2+ ([1]; 1 μM): None

Net (+) Charge (Table 1) (net positive charge): +10
Compound: NCCCN(CCCN)CCCN(CCCN)CCCCN(CCCN)CCCN(CCCN)CCCN [NPS 381, N^1,N^1,N^5, N^10,N^14, N^14-hexakis-(3-aminopropyl) spermine]

Compound: N[C@@H](CCC(=O)O)C(=O)O [glutamate]
response of bovine parathyroid cells or Xenopus oocytes expressing calcium receptors to mGluR agonists [1]: did not respond

Compound: NC[C@H]1O[C@H](O[C@H]2[C@H](O)[C@@H](O[C@H]3O[C@H](CO)[C@@H](O)[C@H](N)[C@H]3O)[C@H](N)C[C@@H]2N)[C@H](N)[C@@H](O)[C@@H]1O [Bekanamycin]
EC50 ([1]; read-out: EC50 for mobilization of intracellular Ca2+ (Table 4), screened as in Example 1): 200 µM
Net (+) Charge (Table 1) (net positive charge): +5
net positive charge (net positive charge; pH 7.3): +5

Compound: N[C@@H](Cn1oc(=O)[nH]c1=O)C(=O)O [quisqualate]
response of bovine parathyroid cells or Xenopus oocytes expressing calcium receptors to mGluR agonists [1]: did not respond

Compound: COc1ccc([C@@H]2Sc3ccccc3N(CCN(C)C)C(=O)[C@@H]2OC(C)=O)cc1 [diltiazem]
effective concentration, like verapamil and D-600 [1]: 100 µM

Compound: CCOC(=O)C1=C(C)NC(C)=C(C(=O)OC)C1c1cccc([N+](=O)[O-])c1 (stereo not drawn) [nitrendipine]
effect on basal [Ca2+]i or increases evoked by extracellular Ca2+ ([1]; 1 μM): None
